Data reported in DBAASP.
≈ marks a conversion by molar mass, not a printed value.

Columns and labels:
Assay in all cases: ≥ marks a high value that may be exact or a test limit, other limits are often not marked, values filed in µg/mL are converted to µM
[1] = system: Escherichia coli NBRC 12734
[2] = system: Serratia marcescens NBRC 3046
[3] = system: Salmonella typhimurium NBRC 12529
[4] = system: Bacillus megaterium ATCC 19213
[5] = system: Bacillus subtilis NBRC 3513
[6] = system: Klebsiella pneumoniae NBRC 3317
[7] = system: Pseudomonas aeruginosa NBRC 3080
[8] = system: Enterococcus faecalis NBRC 3989
[9] = system: Staphylococcus epidermidis NBRC 12933
[10] = system: Staphylococcus aureus NBRC 12732
[11] = system: Escherichia coli NIHJ JC-2
[12] = system: Bacillus subtilis PCI 219
[13] = system: Pseudomonas aeruginosa U-31
[14] = system: Staphylococcus aureus FDA 209P
[15] = system: Trichosporon sp. IOC 4569
[16] = system: Candida albicans IOC 4558
[17] = system: Cryptococcus neoformans ATCC 90112
[18] = system: Pseudomonas aeruginosa ATCC 27853
Escherichia coli SBS 363 = system: Escherichia coli SBS 363
[19] = system: Trichophyton rubrum IOC 4527
[20] = system: Cryptococcus neoformans IOC 4528
[21] = system: Candida glabrata IOC 4565
[22] = system: Candida albicans ATCC 36802
[23] = system: Candida parapsilosis IOC 4564
[24] = system: Aspergillus fumigatus IOC 4526
[25] = system: Candida tropicalis IOC 4560
Candida krusei IOC 4559 = system: Candida krusei IOC 4559
[26] = system: Staphylococcus aureus ATCC 29213
Micrococcus luteus A270 = system: Micrococcus luteus A270
[27] = system: Bacillus subtilis KCTC 1918
[28] = system: Escherichia coli KCTC 1682
[29] = system: Staphylococcus aureus KCTC 1621
[30] = system: Bacillus megaterium KCTC 1096
[31] = system: Pseudomonas aeruginosa KCTC 1637
[32] = system: Candida albicans KCTC 7121
[33] = system: Aspergillus flavus KCTC 7375
Proteus vulgaris = system: Proteus vulgaris
[34] = system: Trichosporon beigelii KCTC 7251
[35] = system: Fusarium oxysporum KCTC 6084
Fusarium oxysporum = system: Fusarium oxysporum
Carnobacterium mobile = system: Carnobacterium mobile
Escherichia coli ML-35 = system: Escherichia coli ML-35
[36] = system: Staphylococcus aureus ATCC 25923
[37] = system: Salmonella enterica subsp. enterica serovar Typhimurium ATCC 14028
[38] = system: Escherichia coli ATCC 25922
[39] = system: Candida albicans ATCC 37092
[40] = system: Serratia marcescens ATCC 8100
Escherichia coli HB101 = system: Escherichia coli HB101

Compound `CC[C@H](C)[C@H](NC(=O)[C@H](C)N)C(=O)N[C@@H](Cc1ccccc1)C(=O)N[C@H](C(=O)N[C@@H](Cc1ccccc1)C(=O)N[C@H](C(=O)N[C@@H](CCCN=C(N)N)C(=O)N[C@@H](Cc1c[nH]c2ccccc12)C(=O)N[C@@H](CC(C)C)C(=O)N[C@@H](CC(C)C)C(=O)N[C@@H](CCCCN)C(=O)N[C@@H](CC(C)C)C(=O)NCC(=O)N[C@@H](Cc1cnc[nH]1)C(=O)N[C@@H](Cc1cnc[nH]1)C(=O)NCC(=O)N[C@@H](CCCN=C(N)N)C(=O)N[C@@H](C)C(=O)N1CCC[C@H]1C(=O)N1CCC[C@H]1C(=O)O)[C@@H](C)CC)[C@@H](C)CC` [AIFIFIRWLLKLGHHGRAPP] has an MIC [1] of at least 128 µM, an MIC [2] of at least 128 µM and an MIC [3] of at least 128 µM. For the same compound, the MIC [4] was 4 µM (≈ 9.37 µg/mL), the MIC [5] was 8 µM (≈ 18.7 µg/mL) and the MIC [6] was at least 128 µM. The MIC [7] was at least 128 µM, the MIC [8] was at least 128 µM and the MIC [9] was 16 µM (≈ 37.5 µg/mL). For the same compound, the MIC [10] was 2 µM (≈ 4.69 µg/mL).
`CC(C)C[C@H](NC(=O)[C@H](CC(C)C)NC(=O)[C@H](CCCCN)NC(=O)[C@H](CC(C)C)NC(=O)[C@H](CC(C)C)NC(=O)[C@H](CCCCN)NC(=O)[C@H](CCCCN)NC(=O)[C@H](Cc1c[nH]c2ccccc12)NC(=O)[C@H](CC(C)C)NC(=O)[C@H](CCCCN)NC(=O)[C@H](CC(C)C)NC(=O)[C@H](CC(C)C)NC(=O)[C@H](CC(C)C)NC(=O)[C@H](CCCCN)NC(=O)[C@H](CC(C)C)NC(=O)[C@H](CC(C)C)NC(=O)[C@@H](N)CCCCN)C(=O)N[C@@H](CCCCN)C(=O)O` [KLLKLLLKLWKKLLKLLK] was tested, and the MIC [11] was at least 44.8 µM, the MIC [12] was at least 44.8 µM and the MIC [13] was at least 44.8 µM. It also gave an MIC [14] of at least 44.8 µM.
Compound `CSCC[C@H](NC(=O)[C@@H](N)CCCCN)C(=O)N[C@@H](CC(=O)O)C(=O)N[C@@H](CO)C(=O)N[C@@H](CCCN=C(N)N)C(=O)N[C@@H](Cc1c[nH]c2ccccc12)C(=O)N[C@@H](CCCN=C(N)N)C(=O)N[C@@H](Cc1c[nH]c2ccccc12)C(=O)N[C@@H](CCCCN)C(=O)N[C@@H](CO)C(=O)N[C@@H](CO)C(=O)N[C@@H](CCCCN)C(=O)N[C@@H](CCCCN)C(=O)O` [KMDSRWRWKSSKK] has an MIC [15] of at least 32.8 µM, an MIC [16] of at least 46.4 µM and an MIC [17] of 4.92 µM (≈ 8.49 µg/mL). The MIC [18] was 16.4 µM (≈ 28.3 µg/mL), the MIC (Escherichia coli SBS 363) was at least 46.4 µM and the MIC [19] was at least 58 µM. For the same compound, the MIC [20] was 4.92 µM (≈ 8.49 µg/mL), the MIC [21] was at least 46.4 µM and the MIC [22] was at least 58 µM. It also gave an MIC [23] of at least 46.4 µM, an MIC [24] of at least 58 µM and an MIC [25] of at least 46.4 µM. For the same compound, the MIC (Candida krusei IOC 4559) was at least 32.8 µM, the MIC [26] was over 23.2 µM and the MIC (Micrococcus luteus A270) was 4.92 µM (≈ 8.49 µg/mL).
`CC[C@H](C)[C@H](NC(=O)[C@H](CCCCN)NC(=O)[C@H](CCCCN)NC(=O)[C@H](Cc1ccccc1)NC(=O)[C@H](CC(C)C)NC(=O)[C@H](CCCCN)NC(=O)[C@H](Cc1c[nH]c2ccccc12)NC(=O)[C@@H](N)CCCCN)C(=O)N1CCC[C@H]1C(=O)N[C@@H](CCCCN)C(=O)N[C@@H](Cc1ccccc1)C(=O)N[C@@H](CC(C)C)C(=O)N[C@@H](Cc1cnc[nH]1)C(=O)N[C@@H](CC(C)C)C(=O)N[C@@H](C)C(N)=O` [KWKLFKKIPKFLHLA] was tested, and the MIC [27] was 0.78 µM (≈ 1.48 µg/mL), the MIC [28] was 8.84 µM (≈ 16.8 µg/mL) and the MIC [29] was 6.25 µM (≈ 11.9 µg/mL). For the same compound, the MIC [30] was 3.12 µM (≈ 5.93 µg/mL), the MIC [31] was 6.25 µM (≈ 11.9 µg/mL) and the MIC [32] was at least 50 µM. For the same compound, the MIC [33] was at least 100 µM, the MIC (Proteus vulgaris) was 3.12 µM (≈ 5.93 µg/mL) and the MIC [34] was at least 50 µM. It also gave an MIC [35] of at least 100 µM.
Work on `CSCC[C@H](N)C(=O)N[C@@H](C)C(=O)N[C@@H](C)C(=O)N[C@@H](CCCN=C(N)N)C(=O)N[C@@H](C)C(=O)N[C@@H](C)C(=O)N[C@@H](CCCN=C(N)N)C(=O)N[C@@H](CC(C)C)C(=O)N[C@@H](C)C(=O)N[C@@H](C)C(=O)N[C@@H](CCCN=C(N)N)C(=O)N[C@@H](CC(C)C)C(=O)N[C@@H](C)C(=O)N[C@@H](CCCN=C(N)N)C(=O)N[C@@H](CC(C)C)C(=O)N[C@@H](C)C(=O)N[C@@H](CC(C)C)C(=O)N[C@@H](CCCN=C(N)N)C(=O)N[C@@H](C)C(=O)N[C@@H](CC(C)C)C(=O)O` [MAARAARLAARLARLALRAL] yielded an MIC (Fusarium oxysporum) of 0.1 µM (≈ 0.214 µg/mL) and an MIC (Carnobacterium mobile) of 0.0025 µM (≈ 0.00534 µg/mL).
With `CC[C@H](C)[C@H](NC(=O)[C@H](CCCN=C(N)N)NC(=O)[C@@H](N)CCCN=C(N)N)C(=O)N[C@@H](CCCN=C(N)N)C(=O)N1CCC[C@H]1C(=O)N[C@@H](CCCN=C(N)N)C(=O)N1CCC[C@H]1C(=O)N1CCC[C@H]1C(=O)N[C@@H](CCCN=C(N)N)C(=O)N[C@@H](CC(C)C)C(=O)N1CCC[C@H]1C(=O)N[C@@H](CCCN=C(N)N)C(=O)N1CCC[C@H]1C(=O)N[C@@H](CCCN=C(N)N)C(=O)N1CCC[C@H]1C(=O)O` [RRIRPRPPRLPRPRP] the MIC (Escherichia coli ML-35) was at least 128 µM, the MIC [36] was over 128 µM and the MIC [37] was 128 µM (≈ 246 µg/mL). For the same compound, the MIC [38] was 45.3 µM (≈ 86.9 µg/mL), the MIC [39] was 28.8 µM (≈ 55.3 µg/mL) and the MIC [40] was at least 128 µM. For the same compound, the MIC [26] was over 500 µM and the MIC (Escherichia coli HB101) was 16 µM (≈ 30.7 µg/mL).
